These results are taken from patent US7176224B2, “Oxazolyl-aryloxyacetic acid derivatives and their use as PPAR agonists” (Eli Lilly and Company, priority 2000, dated 2007).

In one assay the test system is huPPARγ. In words: Cotransfection assay in CV-1 cells, luciferase reporter. It counts as cell-based, human. Conditions: GAL4 chimeric system, relative to agonist reference molecule. Here is the method: […] binding (ABCD binding) was carried out using SPA technology with PPAR receptors. […] Cotransfection assays were carried out in CV-1 cells. The reporter plasmid contained an acylCoA oxidase (AOX) PPRE and TK promoter upstream of the luciferase reporter cDNA. Appropriate PPARs and RXRα were constitutively expressed using plasmids containing the CMV promoter. […] In order to eliminate such interference, a GAL4 chimeric system was used in which the DNA binding domain of the transfected PPAR was replaced by that of GAL4, and the GAL4 response element was utilized in place of the AOX PPRE. […] Efficacies were determined by computer fit to a concentration-response curve, or in some cases at a single high concentration of agonist (10 μM). For binding or cotransfection studies with receptors other than PPARs, similar assays were carried out using appropriate ligands, receptors, reporter constructs, etc., for that particular receptor.
These studies were carried out to evaluate the ability of compounds of the invention to bind to and/or activate various nuclear transcription factors, particularly huPPARα (“hu” indicates “human”) and huPPARγ. These studies provide in vitro data concerning efficacy and selectivity of compounds of the invention. Furthermore, binding and cotransfection data for compounds of the invention were compared with corresponding data for marketed compounds that act on either huPPARα or huPPARγ.
(In general: A reporter such as luciferase makes a cellular process visible.)

Another assay deals with db/db mice. In words: Evaluation of glucose levels in db/db mice. It counts as in vivo. Conditions: 30 mg/kg oral gavage daily for 7 days; 100% = glucose not differing from lean values. Here is the method: Five week old male diabetic (db/db) mice [C57BlKs/j-m +/+ Lepr(db), Jackson Laboratory, Bar Harbor, Me.] or lean littermates (DB/?) were housed 6 per cage (10″20″8″ with aspen chip bedding) with food (Purina 5015) and water available at all times. After an acclimation period of 2 weeks, animals were individually identified by ear notches, weighed, and bled via the tail vein for determination of initial glucose levels. Blood was collected (100 μl) from unfasted animals by wrapping each mouse in a towel, cutting the tip of the tail with a scalpel, and milking blood from the tail into a heparinized capillary tube (Fisher) balanced on the edge of the bench. Sample was discharged into a heparinized microtainer with gel separator (VWR) and retained on ice. Plasma was obtained after centrifugation at 4° C. and glucose measured immediately. Remaining plasma was frozen until the completion of the experiment, when glucose and triglycerides were assayed in all samples. […]
Glucose was measured colorimetrically using commercially purchased reagents (Sigma #315-500). […] The absorbance of the dye produced is linearly related to the analyte in the sample. […] Standards (Sigma #339-11, Sigma #16-11, and Sigma #CC0534 for glucose, triglycerides and total cholesterol, respectively), quality control plasma (Sigma # A2034), and samples (2 or 5 μl/well) were measured in duplicate using 200 μl of reagent. […]

With `Cc1oc(-c2cccc(-c3ccc(F)cc3)c2)nc1CCOc1ccc(CC(C)(Oc2ccccc2)C(=O)O)cc1` (centres unmarked) [Example 4, 3-(4-{2-[2-(4′-Fluorobiphenyl-3-yl)-5-methyloxazol-4-yl]ethoxy}phenyl)-2-methyl-2-phenoxypropionic acid], in the assay with huPPARγ, the “huPPARγ CTF Efficacy” value was found to be 93%. Also, the “Glucose Normalisation” value with db/db mice came to 91%.
